Experimental findings from patent US9273011B2, “Substituted pyridazines for the treatment of pain” (INHIBITAXIN LIMITED, priority 2011, dated 2016) are described below.

Molecules are shown by their SMILES.

This test deals with human Autotaxin enzyme (Homo sapiens (Human), UniProt Q13822). Description: Autotaxin FS-3 assay. Type of test: biochemical. The note with it: Autotaxin FS3 assay; human Autotaxin enzyme 2 nM; inhibition of FS-3 fluorescence; range and n in brackets. The text has this: Autotaxin (ATX) converts Lysophosphatidyl choline (LPC) to Lysophosphatidic acid (LPA) via its Lysophosphodiesterase (lysoPLD) activity. FS-3 is an LPC analogue that is conjugated with both a fluorophore and a quencher. In its native state the quencher interferes with the fluorophore's fluorescence. Once autotaxin cleaves FS-3, the fluorophore becomes liberated from the quencher, resulting in increased fluorescence. Thus increase in fluorescence is a measure of ATX activity. Any compound that inhibits the activity of Autotaxin will show less fluorescence read in presence of FS-3, which could be measured by fluorimetric analysis. See U.S. Pat. No. 7,989,663.
Autotaxin Inhibitor Screening Kits are available from Echelon Biosciences, Logan, Utah, USA [http://echelon-inc.com/, accessed 6 Oct. 2011]. Using the methods of Gierse et al [“A novel autotaxin inhibitor reduces lysophosphatidic acid levels in plasma and the site of inflammation”, Journal of Pharmacology and Experimental Therapeutics, vol 334(1), 310-317 (2010), see in particular page 312 lines 4-14], the potency of the compounds of the invention as inhibitors of human autotaxin enzyme may be measured (as IC50 values).
The FS-3 assay to identify ATX inhibitors was preformed as follows: 3 μl of standard inhibitor (referred to as PF-8380 in Gierse et al above) and test compounds were added to an assay plate. To each assay well, containing test compounds or standard, 24 μl of human Autotaxin enzyme (2 nM) was added. The assay plate was then centrifuged at 1000 rpm for 1 minute and allowed to incubate at 37° C. for 30 minutes. Following the incubation period each plate was read in a fluorescence plate reader (Spectra Max M5: excitation: 494 nm and emission: 520 nm) and IC50 values were derived from inhibition of FS-3 fluorescence (as described above).
As usually defined, the IC50 is the concentration that inhibits the measured activity by half. A higher IC50 goes with a need for much substance. For `COc1ccc(C(CCO)Nc2ccc(C(=O)NCc3cc(F)ccc3F)nn2)cc1` (centres unmarked) [Example 1, N-(2,5-difluorobenzyl)-6-{[3-hydroxy-1-(4-methoxy-phenyl)propyl]amino}pyridazine-3-carboxamide], it took 0.014 µM to reach half-maximal inhibition (IC50). With `COc1ccc(C(CCO)Nc2ccc(C(=O)NCc3cc(F)cc(F)c3)nn2)cc1` (centres unmarked) [Example 2, N-(3,5-difluorobenzyl)-6-{[3-hydroxy-1-(4-methoxy-phenyl)propyl]amino}pyridazine-3-carboxamide] the figure was 0.0249 µM; with `Cc1noc(NC(=O)c2ccc(NC(CO)Cc3ccc(Cl)cc3)nn2)c1C` (centres unmarked) [Example 3, 6-{[1-(4-chlorobenzyl)-2-hydroxyethyl]amino}-N-(3,4-dimethylisoxazol-5-yl)pyridazine-3-carboxamide], 0.0376 µM; with `CCN(Cc1ccncc1)c1ccc(C(=O)Nc2cc(-c3ccccc3)nn2C)nn1` [Example 4, 6-[ethyl(pyridin-4-ylmethyl)amino]-N-(1-methyl-3-phenyl-1H-pyrazol-5-yl)pyrid azine-3-carboxamide], 0.0652 µM. As to `COc1ccc(C(CCO)Nc2ccc(C(=O)Nc3onc(C)c3C)nn2)cc1` (centres unmarked) [Example 5, N-(3,4-dimethylisoxazol-5-yl)-6-{[3-hydroxy-1-(4-methoxyphenyl)propyl]amino}pyridazine-3-carboxamide], the IC50 came out at 0.0695 µM. Then `O=C(NCCN1CCNC1=O)c1ccc(NC2Cc3ccccc3C2)nn1` [Example 6, 6-(2,3-dihydro-1H-inden-2-ylamino)-N-[2-(2-oxoimidazolidin-1-yl)ethyl]pyridazine-3-carboxamide], with 0.0738 µM; and `O=C(NCCCn1ccnc1)c1ccc(NCc2cc(Cl)cc(Cl)c2)nn1` [Example 7, 6-[(3,5-dichlorobenzyl)amino]-N-[3-(1H-imidazol-1-yl)propyl]pyridazine-3-carboxamide], with 0.0892 µM; and `Cc1noc(NC(=O)c2ccc(NC(C)c3ccc(Cl)cc3)nn2)c1C` (centres unmarked) [Example 8, 6-{[1-(4-chlorophenyl)ethyl]amino}-N-(3,4-dimethyl-isoxazol-5-yl)pyridazine-3-carboxamide], with 0.1 µM.

As to `Cc1ccc(F)c(CNc2ccc(C(=O)Nc3onc(C)c3C)nn2)c1F` [Example 9, 6-[(2,6-difluoro-3-methylbenzyl)amino]-N-(3,4-dimethylisoxazol-5-yl)pyridazine-3-carboxamide], the IC50 turned out to be 0.103 µM. `Cc1noc(NC(=O)c2ccc(NCc3cccc4ccccc34)nn2)c1C` [Example 10, N-(3,4-dimethylisoxazol-5-yl)-6-[(1-naphthylmethyl)-amino]pyridazine-3-carboxamide] had an IC50 of 0.114 µM. With `Cc1noc(NC(=O)c2ccc(NCc3cccc(Cl)c3Cl)nn2)c1C` [Example 11, 6-[(2,3-dichlorobenzyl)amino]-N-(3,4-dimethyl-isoxazol-5-yl)pyridazine-3-carboxamide] the figure was 0.248 µM. With `Cc1noc(NC(=O)c2ccc(NC3CCN(Cc4ccccc4)C3)nn2)c1C` (centres unmarked) [Example 12, 6-[(1-benzylpyrrolidin-3-yl)amino]-N-(3,4-dimethyl-isoxazol-5-yl)pyridazine-3-carboxamide] the figure was 0.357 µM; with `Cc1cc(NC(=O)c2ccc(NC(CO)Cc3ccc(Cl)cc3)nn2)n(C)n1` (centres unmarked) [Example 13, 6-{[1-(4-chlorobenzyl)-2-hydroxyethyl]amino}-N-(1,3-dimethyl-1H-pyrazol-5-yl)pyridazine-3-carboxamide], 0.507 µM. The molecule `Cc1onc(-c2ccccc2)c1CNc1ccc(C(=O)NCc2cc(F)cc(F)c2)nn1` [Example 14, N-(3,5-difluorobenzyl)-6-{[(5-methyl-3-phenylisoxazol-4-yl)methyl]amino}pyridazine-3-carboxamide] displayed an IC50 of 0.646 µM.
